PMC5516711 (Evidence-based Complementary and Alternative Medicine : eCAM, 2017)
Read-outs that look alike come from different tables or passages of the source.

Experiments:
[1] = Pharmacokinetic study in rats after oral administration of Naoxintong capsule (NXTC), plasma levels by HPLC-MS/MS; conditions: for Detection in rat plasma after oral administration of NXTC: doses of 0.5 g kg^−1 and 1.5 g kg^−1, at the present LLOQ level; for Tmax / AUC(0-inf) / AUC(0-t) / Cmax / MRT inf / MRT last / half-life: male, Sprague-Dawley, rat, plasma, po
Protocol: (§1) The LC-MS/MS analysis was carried out on an Agilent 1200 system (Agilent Corporation, USA) coupled with an API 3200 triple quadrupole mass spectrometer with a Turbo Ion Spray Ionization (ESI) source (Concord, Ontario, Canada). The Agilent 1200 system consisted of a vacuum degasser (G1322A), a binary pump (G1312A), and a Hip-ALS autosampler (G13678). Chromatographic separation was performed on an Eclipse plus C18 column (4.6 × 100 mm, 1.8 μm) with a security guard C18 column (2.1 mm × 12.5 mm, 5 μm) (Agilent, USA). The mobile phases consisted of acetonitrile (A) and formic acid aqueous solution (B). The linear gradient was 30% A-30% A (0–10 min); 30%–80% A (10–15 min); 80%–95% A (15–20 min); 95%-95% A (20–30 min). Reequilibration time after gradient elution was 5 min. The column temperature was maintained at 25°C and the flow rate was set at 0.300 mL min^−1. ESI-MS spectra were acquired in both negative and positive ion multiple reaction monitoring (MRM) mode. Data collection and peak calculations were performed by Analyst 1.4.2 software (AB MDS Sciex).
(§2) The ISs solution (10 μL) and formic acid (10 μL) were added to plasma samples (100 μL). Acetonitrile (370 μL) was used to precipitate protein. The mixed solution was swirled for 1 min and then centrifuged at 14000 rpm for 10 min. The supernatant fluid was collected and then evaporated to dryness with a stream of N2 gas in a 40°C water bath. The residue was reconstituted in 100 μL methanol, swirled for 1 min. The sample was centrifuged at 14000 rpm for 10 min. 10 μL of the supernatant was injected into the LC-MS/MS system for analysis.
(§3) Rats were fasted for 12 h with free access to water before the experiment. NXTC extracts were orally administrated to ten rats at single time dose (0.5 g kg^−1) and to ten rats at triple doses (1.5 g kg^−1). The blood samples were collected at 5, 10, 15, 30, 45, 60, 90, 120, 240, 480, 720, and 1440 min after oral administration. Blood samples (200 μL) were collected from the vein of the eye sockets into heparinized tubes after the rats were anesthetized with ethyl ether. The samples were immediately centrifuged at 7,000 rpm, 10°C for 10 min. Then the plasma samples obtained were stored at −20°C.
(§4) Some pharmacokinetic parameters were calculated by DAS1.0 software (Drug and Statistics 1.0, Medical College of Wannan, China). An appropriate model was employed to calculate the following parameters: area under the plasma concentration versus time curve from zero to last sampling time (AUC0→24 h) and infinity (AUC0→∞) and mean retention time from zero to last sampling time (MRT0→24 h). […] All data were shown as average value ± standard deviation.

[2] = in vivo
Protocol: as §1, §2, §3, §4

[3] = rat, in vivo, po; cited from earlier work

Row | Detection in rat plasma after oral administration of NXTC [1] | AUC(0-inf) ([1]; 0.5 g/kg) [ng·h/mL] | AUC(0-t) ([1]; 0.5 g/kg) [ng·h/mL] | Cmax ([1]; 0.5 g/kg) [ng/mL] | MRT inf ([1]; 0.5 g/kg) [h] | MRT last ([1]; 0.5 g/kg) [h] | Tmax ([1]; 0.5 g/kg) [h] | half-life ([1]; 0.5 g/kg) [h] | AUC(0-inf) ([1]; 1.5 g/kg) [ng·h/mL] | AUC(0-t) ([1]; 1.5 g/kg) [ng·h/mL] | Cmax ([1]; 1.5 g/kg) [ng/mL] | MRT inf ([1]; 1.5 g/kg) [h] | MRT last ([1]; 1.5 g/kg) [h] | Tmax ([1]; 1.5 g/kg) [h] | half-life ([1]; 1.5 g/kg) [h] | Compound | other results
1 | not detected |  |  |  |  |  |  |  |  |  |  |  |  |  |  | C[C@@]12C[C@@]3(O)O[C@@H](O1)[C@]1(COC(=O)c4ccccc4)[C@H]3C[C@@]12O[C@@H]1O[C@H](CO)[C@@H](O)[C@H](O)[C@H]1O [Paeoniflorin, paeoniflorin] | 
2 |  | 19.6 ± 21.1 | 11.7 ± 9.6 | 9.8 ± 4.4 | 4.02 ± 4.96 | 1.33 ± 1.19 | 0.18 ± 0.03 | 0.83 ± 0.33 | 28.5 ± 20 | 26 ± 18.6 | 15.2 ± 3.08 | 2.72 ± 1.82 | 2.03 ± 1.43 | 0.2 ± 0.04 | 0.7 ± 0.35 | O=C(O)/C=C/c1ccc(O)c(O)c1 [Caffeic acid, caffeic acid] | Tmax [1]: < 1 h
3 | could be detected | 27.7 ± 36.2 | 8.15 ± 4.85 | 1.61 ± 1.11 | 26.8 ± 31.5 | 5.48 ± 1.66 | 0.54 ± 0.29 | 11.4 ± 15.8 | 83 ± 81 | 35.4 ± 42.2 | 4.18 ± 3.34 | 27.2 ± 20.6 | 5.75 ± 3.36 | 3.17 ± 3.75 | 13.2 ± 10.4 | Cc1coc2c1C(=O)C(=O)c1c-2ccc2c1CCCC2(C)C [Tanshinone IIA, tanshinone IIA] | 
4 | not detected |  |  |  |  |  |  |  |  |  |  |  |  |  |  | OC[C@H]1O[C@@H](Oc2cc(O)cc(/C=C/c3ccc(O[C@@H]4O[C@H](CO)[C@@H](O)[C@H](O)[C@H]4O)cc3O)c2)[C@H](O)[C@@H](O)[C@@H]1O [Mulberroside A, mulberroside A] | 
5 | could be detected | 0.15 ± 0.09 | 0.08 ± 0.05 | 0.11 ± 0.05 | 1.67 ± 1.53 | 0.56 ± 0.23 | 0.49 ± 0.33 | 2.96 ± 5.61 | 3.06 ± 3.07 | 1.47 ± 1.82 | 0.37 ± 0.32 | 25.9 ± 31.8 | 5.16 ± 3.68 | 0.38 ± 0.25 | 1.42 ± 0.69 | COc1ccc(-c2coc3cc(O)ccc3c2=O)cc1 [Formononetin, formononetin] | AUC(0-t) [1]: < 1 ng·h/mL; Cmax [1]: < 1 ng/mL; Tmax [1]: < 1 h
6 |  |  |  |  |  |  |  |  |  |  |  |  |  |  |  | COc1cc(/C=C/C(=O)O)ccc1O [Ferulic acid, ferulic acid] | Detection in rat plasma after oral administration of NXTC [2]: could be detected; Cmax ([2]; rat, po): 12.07 ± 4.61 ng/mL; Tmax ([2]; rat, po): less than 1 h; AUC(0–24 h) ([2]; rat, po, 0.5 g/kg): 3.20 ± 1.55 ng/mL∗h; AUC(0–∞) ([2]; rat, po, 0.5 g/kg): 4.19 ± 2.30 ng/mL∗h; C max ([2]; rat, po, 0.5 g/kg): 10.93 ± 4.67 ng/mL; MRT(0–24 h) ([2]; rat, po, 0.5 g/kg): 0.28 ± 0.10 h; MRT(0–∞) ([2]; rat, po, 0.5 g/kg): 0.48 ± 0.33 h; T 1/2 ([2]; rat, po, 0.5 g/kg): 0.20 ± 0.19 h; T max ([2]; rat, po, 0.5 g/kg): 0.17 ± 0.00 h; AUC(0–24 h) ([2]; rat, po, 1.5 g/kg): 8.33 ± 3.87 ng/mL∗h; AUC(0–∞) ([2]; rat, po, 1.5 g/kg): 14.4 ± 12.8 ng/mL∗h; C max ([2]; rat, po, 1.5 g/kg): 12.07 ± 4.61 ng/mL; MRT(0–24 h) ([2]; rat, po, 1.5 g/kg): 0.81 ± 0.38 h; MRT(0–∞) ([2]; rat, po, 1.5 g/kg): 3.80 ± 6.11 h; T 1/2 ([2]; rat, po, 1.5 g/kg): 0.42 ± 0.15 h; T max ([2]; rat, po, 1.5 g/kg): 0.19 ± 0.04 h; mean Tmax [3]: 1.8 min
7 | not detected |  |  |  |  |  |  |  |  |  |  |  |  |  |  | CC(C)(O)CC[C@@H](O)[C@](C)(O)[C@H]1CC[C@@]2(O)C3=CC(=O)[C@@H]4C[C@@H](O)[C@@H](O)C[C@]4(C)[C@H]3CC[C@]12C [Ecdysterone, ecdysterone] | 

Row | Compound | Detection in rat plasma after oral administration of NXTC [1] | AUC(0-inf) ([1]; 0.5 g/kg) [ng·h/mL] | AUC(0-t) ([1]; 0.5 g/kg) [ng·h/mL] | Cmax ([1]; 0.5 g/kg) [ng/mL] | MRT inf ([1]; 0.5 g/kg) [h] | MRT last ([1]; 0.5 g/kg) [h] | Tmax ([1]; 0.5 g/kg) [h] | half-life ([1]; 0.5 g/kg) [h] | AUC(0-inf) ([1]; 1.5 g/kg) [ng·h/mL] | AUC(0-t) ([1]; 1.5 g/kg) [ng·h/mL] | Cmax ([1]; 1.5 g/kg) [ng/mL] | MRT inf ([1]; 1.5 g/kg) [h] | MRT last ([1]; 1.5 g/kg) [h] | Tmax ([1]; 1.5 g/kg) [h] | half-life ([1]; 1.5 g/kg) [h] | other results
8 | C[C@H]1COC2=C1C(=O)C(=O)c1c2ccc2c1CCCC2(C)C [Cryptotanshinone, cryptotanshinone] | could be detected | 4.72 ± 5.99 | 1.49 ± 0.76 | 0.61 ± 0.23 | 20.7 ± 27.7 | 3.06 ± 1.47 | 0.51 ± 0.4 | 2.93 ± 3.89 | 55.2 ± 59.8 | 24.8 ± 27.9 | 2.78 ± 2.52 | 19 ± 17.5 | 7.37 ± 3.95 | 0.6 ± 0.2 | 17.8 ± 17.1 | half-life ([1]; 1.5 g kg^−1): 17.8 ± 17.1 h
9 | salvianolic acid B | not detected |  |  |  |  |  |  |  |  |  |  |  |  |  |  | 
10 | N#C[C@H](O[C@@H]1O[C@H](CO[C@@H]2O[C@H](CO)[C@@H](O)[C@H](O)[C@H]2O)[C@@H](O)[C@H](O)[C@H]1O)c1ccccc1 [Amygdalin, amygdalin] | not detected |  |  |  |  |  |  |  |  |  |  |  |  |  |  | 
11 | CC(C)(O)[C@@H]1CC[C@](C)([C@H]2[C@@H](O)C[C@@]3(C)[C@@H]4C[C@H](O[C@@H]5O[C@H](CO)[C@@H](O)[C@H](O)[C@H]5O)[C@H]5C(C)(C)[C@@H](O[C@@H]6OC[C@@H](O)[C@H](O)[C@H]6O)CC[C@@]56C[C@@]46CC[C@]23C)O1 [Astragaloside IV, astragaloside IV] | not detected |  |  |  |  |  |  |  |  |  |  |  |  |  |  | 
